# Measurements as given in patent US20230263822A1, “MODULATION OF FACTOR 11 EXPRESSION” (Ionis Pharmaceuticals, Inc., priority 2008, published 2023).
# Key:
# human Factor 11 mRNA [1] = test: Dose-dependent inhibition of human Factor 11 in HepB3 cells, lipofectin (Example 7); format: cell-based; settings: for percent inhibition of Factor 11 mRNA relative to untreated control cells: ~16 hours
# Method: Cells were plated at a density of 4,000 cells per well and transfected using lipofectin reagent with 2.3 nM, 4.7 nM, 9.4 nM, 18.75 nM, 37.5 nM, and 75 nM concentrations of antisense oligonucleotide, as specified in Table 14. After a treatment period of approximately 16 hours, RNA was isolated from the cells and human Factor 11 mRNA levels were measured by quantitative real-time PCR. Human Factor 11 primer probe set RTS 2966 was used to measure mRNA levels. Factor 11 mRNA levels were adjusted according to total RNA content, as measured by RIBOGREEN. Results are presented as percent inhibition of Factor 11, relative to untreated control cells.
# [2] = Tolerability in CD1 mice: organ weight (Example 33); format: in vivo; settings: 50 mg/kg s.c. twice a week, vs PBS control, normalized to body weight
# Method: Three days after the last dose was administered to all groups, the mice were sacrificed.
# [3] = Tolerability in Sprague-Dawley rats: body weight and organ weight (Example 35); format: in vivo; settings: 50 mg/kg s.c. twice per week for 6 weeks; for Percent change: Body weight: percent change over the weights at the start of the study; for Percent change in organ weight: Kidney / Percent change in organ weight: Liver / Percent change in organ weight: Spleen: vs saline control, normalized to body weight
# Excerpt: Urine samples were taken before the start of treatment.
# The body weights are presented in Table 71 and are expressed as a percent change over the weights taken at the start of the study.
# human Factor 11 mRNA [4] = test: Dose-dependent inhibition of human Factor 11 in cyano primary hepatocytes, electroporation (Example 6); format: cell-based; settings: ~16 hours
# Method: Cells were plated at a density of 35,000 cells per well and transfected via electroporation with 0.74 nM, 2.2 nM, 6.7 nM, 20 nM, 60 nM, and 180 nM concentrations of antisense oligonucleotide, as specified in Table 13. After a treatment period of approximately 16 hours, RNA was isolated from the cells and human Factor 11 mRNA levels were measured by quantitative real-time PCR. Human Factor 11 primer probe set RTS 2966 was used to measure mRNA levels. Factor 11 mRNA levels were adjusted according to total RNA content, as measured by RIBOGREEN. Results are presented as percent inhibition of human Factor 11, relative to untreated control cells.
# human Factor 11 mRNA [5] = test: Dose-dependent inhibition of human Factor 11 in HepG2 cells, electroporation 625-20,000 nM (Example 5); format: cell-based; settings: ~16 hours
# Method: The gapmers were also transfected via electroporation and their dose dependent inhibition of human Factor 11 mRNA was measured. Cells were plated at a density of 20,000 cells per well and transfected via electroporation with 625 nM, 1250 nM, 2500 nM, 5,000 nM, 10,000 nM, and 20,000 nM concentrations of antisense oligonucleotide, as specified in Table 12. After a treatment period of approximately 16 hours, RNA was isolated from the cells and human Factor 11 mRNA levels were measured by quantitative real-time PCR. Human Factor 11 primer probe set RTS 2966 was used to measure mRNA levels. Factor 11 mRNA levels were adjusted according to total RNA content, as measured by RIBOGREEN. Results are presented as percent inhibition of human Factor 11, relative to untreated control cells.
Substance,IC50 (human Factor 11 mRNA [1]) [nM],percent inhibition of Factor 11 mRNA relative to untreated control cells (human Factor 11 mRNA [1]; 2.3 nM) [%],percent inhibition of Factor 11 mRNA relative to untreated control cells (human Factor 11 mRNA [1]; 4.7 nM) [%],percent inhibition of Factor 11 mRNA relative to untreated control cells (human Factor 11 mRNA [1]; 9.4 nM) [%],percent inhibition of Factor 11 mRNA relative to untreated control cells (human Factor 11 mRNA [1]; 18.75 nM) [%],percent inhibition of Factor 11 mRNA relative to untreated control cells (human Factor 11 mRNA [1]; 37.5 nM) [%],percent inhibition of Factor 11 mRNA relative to untreated control cells (human Factor 11 mRNA [1]; 75 nM) [%],Percent change in kidney weight ([2]; 2 weeks),Percent change in liver weight ([2]; 2 weeks),Percent change in spleen weight ([2]; 2 weeks),Percent change in kidney weight ([2]; 4 weeks) [%],Percent change in liver weight ([2]; 4 weeks),Percent change in spleen weight ([2]; 4 weeks),Percent change in kidney weight ([2]; 6 weeks),Percent change in liver weight ([2]; 6 weeks),Percent change in spleen weight ([2]; 6 weeks),Percent change: Body weight [3] [%],Percent change in organ weight: Kidney [3],Percent change in organ weight: Liver [3],Percent change in organ weight: Spleen [3],also measured
"417002 (antisense GGTGCACAGTTTCTGGCAGG; 2-13-5 gapmer chemistry, further chemistry not given here) [compound 417002]",13,24,30,46,57,71,65,+3%,+14%,+29%,−5,+8%,+26%,−2%,+35%,+108%,−29,+63%,+27%,+446%,percent inhibition of human Factor 11 mRNA relative to untreated control cells (human Factor 11 mRNA [4]; 0.74 nM): 32%; percent inhibition of human Factor 11 mRNA relative to untreated control cells (human Factor 11 mRNA [4]; 2.2 nM): 16%; percent inhibition of human Factor 11 mRNA relative to untreated control cells (human Factor 11 mRNA [4]; 6.7 nM): 28%; percent inhibition of human Factor 11 mRNA relative to untreated control cells (human Factor 11 mRNA [4]; 20 nM): 38%; percent inhibition of human Factor 11 mRNA relative to untreated control cells (human Factor 11 mRNA [4]; 60 nM): 55%; percent inhibition of human Factor 11 mRNA relative to untreated control cells (human Factor 11 mRNA [4]; 180 nM): 71%; percent inhibition of human Factor 11 mRNA relative to untreated control cells (human Factor 11 mRNA [5]; 625 nM): 59%; percent inhibition of human Factor 11 mRNA relative to untreated control cells (human Factor 11 mRNA [5]; 1250 nM): 72%; percent inhibition of human Factor 11 mRNA relative to untreated control cells (human Factor 11 mRNA [5]; 2500 nM): 86%; percent inhibition of human Factor 11 mRNA relative to untreated control cells (human Factor 11 mRNA [5]; 5000 nM): 90%; percent inhibition of human Factor 11 mRNA relative to untreated control cells (human Factor 11 mRNA [5]; 10000 nM): 94%; percent inhibition of human Factor 11 mRNA relative to untreated control cells (human Factor 11 mRNA [5]; 20000 nM): 96%
"416864 (antisense GGCAGCGGACGGCATTGGTG; 5-10-5 gapmer, further chemistry not given here) [compound 416864]",9,24,37,42,66,76,63,−4%,−2%,−10%,−9,+2%,−2%,−15%,−5%,−6%,−24,+16%,+16%,+204%,percent inhibition of human Factor 11 mRNA relative to untreated control cells (human Factor 11 mRNA [4]; 0.74 nM): 0%; percent inhibition of human Factor 11 mRNA relative to untreated control cells (human Factor 11 mRNA [4]; 2.2 nM): 1%; percent inhibition of human Factor 11 mRNA relative to untreated control cells (human Factor 11 mRNA [4]; 6.7 nM): 15%; percent inhibition of human Factor 11 mRNA relative to untreated control cells (human Factor 11 mRNA [4]; 20 nM): 23%; percent inhibition of human Factor 11 mRNA relative to untreated control cells (human Factor 11 mRNA [4]; 60 nM): 47%; percent inhibition of human Factor 11 mRNA relative to untreated control cells (human Factor 11 mRNA [4]; 180 nM): 64%; percent inhibition of human Factor 11 mRNA relative to untreated control cells (human Factor 11 mRNA [5]; 625 nM): 45%; percent inhibition of human Factor 11 mRNA relative to untreated control cells (human Factor 11 mRNA [5]; 1250 nM): 74%; percent inhibition of human Factor 11 mRNA relative to untreated control cells (human Factor 11 mRNA [5]; 2500 nM): 84%; percent inhibition of human Factor 11 mRNA relative to untreated control cells (human Factor 11 mRNA [5]; 5000 nM): 87%; percent inhibition of human Factor 11 mRNA relative to untreated control cells (human Factor 11 mRNA [5]; 10000 nM): 92%; percent inhibition of human Factor 11 mRNA relative to untreated control cells (human Factor 11 mRNA [5]; 20000 nM): 94%
"416892 (antisense GCCCTTCATGTCTAGGTCCA; 3-14-3 chimeric gapmer, further chemistry not given here) [compound 416892]",9,28,34,50,68,82,72,+2%,+35%,+24%,−3,+88%,+30%,+19%,+95%,+65%,−39,+32%,+38%,+151%,percent inhibition of human Factor 11 mRNA relative to untreated control cells (human Factor 11 mRNA [4]; 0.74 nM): 20%; percent inhibition of human Factor 11 mRNA relative to untreated control cells (human Factor 11 mRNA [4]; 2.2 nM): 20%; percent inhibition of human Factor 11 mRNA relative to untreated control cells (human Factor 11 mRNA [4]; 6.7 nM): 43%; percent inhibition of human Factor 11 mRNA relative to untreated control cells (human Factor 11 mRNA [4]; 20 nM): 62%; percent inhibition of human Factor 11 mRNA relative to untreated control cells (human Factor 11 mRNA [4]; 60 nM): 88%; percent inhibition of human Factor 11 mRNA relative to untreated control cells (human Factor 11 mRNA [4]; 180 nM): 92%; percent inhibition of human Factor 11 mRNA relative to untreated control cells (human Factor 11 mRNA [5]; 625 nM): 66%; percent inhibition of human Factor 11 mRNA relative to untreated control cells (human Factor 11 mRNA [5]; 1250 nM): 86%; percent inhibition of human Factor 11 mRNA relative to untreated control cells (human Factor 11 mRNA [5]; 2500 nM): 96%; percent inhibition of human Factor 11 mRNA relative to untreated control cells (human Factor 11 mRNA [5]; 5000 nM): 97%; percent inhibition of human Factor 11 mRNA relative to untreated control cells (human Factor 11 mRNA [5]; 10000 nM): 100%; percent inhibition of human Factor 11 mRNA relative to untreated control cells (human Factor 11 mRNA [5]; 20000 nM): 100%
"417003 (antisense TGGTGCACAGTTTCTGGCAG; 2-13-5 gapmer chemistry, further chemistry not given here) [compound 417003]",17,11,28,40,40,63,58,−9%,+8%,+12%,−2,+42%,+101%,−1%,+32%,+98%,−40,+25%,+51%,+522%,percent inhibition of human Factor 11 mRNA relative to untreated control cells (human Factor 11 mRNA [4]; 0.74 nM): 12%; percent inhibition of human Factor 11 mRNA relative to untreated control cells (human Factor 11 mRNA [4]; 2.2 nM): 18%; percent inhibition of human Factor 11 mRNA relative to untreated control cells (human Factor 11 mRNA [4]; 6.7 nM): 19%; percent inhibition of human Factor 11 mRNA relative to untreated control cells (human Factor 11 mRNA [4]; 20 nM): 39%; percent inhibition of human Factor 11 mRNA relative to untreated control cells (human Factor 11 mRNA [4]; 60 nM): 58%; percent inhibition of human Factor 11 mRNA relative to untreated control cells (human Factor 11 mRNA [4]; 180 nM): 74%; percent inhibition of human Factor 11 mRNA relative to untreated control cells (human Factor 11 mRNA [5]; 625 nM): 60%; percent inhibition of human Factor 11 mRNA relative to untreated control cells (human Factor 11 mRNA [5]; 1250 nM): 74%; percent inhibition of human Factor 11 mRNA relative to untreated control cells (human Factor 11 mRNA [5]; 2500 nM): 86%; percent inhibition of human Factor 11 mRNA relative to untreated control cells (human Factor 11 mRNA [5]; 5000 nM): 90%; percent inhibition of human Factor 11 mRNA relative to untreated control cells (human Factor 11 mRNA [5]; 10000 nM): 95%; percent inhibition of human Factor 11 mRNA relative to untreated control cells (human Factor 11 mRNA [5]; 20000 nM): 95%
